Among the data in US20180273531A1, “PYRIMIDINE COMPOUND AND MEDICAL USE THEREOF” (Japan Tobacco Inc., priority 2004, published 2018) are IC50 and fold induction values, retold here.

Structures are written as SMILES.

As a reminder, the IC50 is the concentration that inhibits the measured activity by half. The fold induction is the signal under treatment as a multiple of the control signal. A low value points to a weak induction.

Common to all, as to type: cell-based
Assay [1] has as its system Renal cancer cell line ACHN cell. Kind of assay: Growth inhibitory effect against cancer cell lines (3H-thymidine uptake), ACHN. Particulars: Homo sapiens, ACHN. How it is done:
(§1) Renal cancer cell line ACHN cell or colorectal cancer cell line HT-29 cells were cultured in a 96 well plate at 1.0×10^4 cells/90 μL/well for 24 hrs, then a test substance dissolved in DMSO (dimethyl sulfoxide) was added. After 18 hrs, ^3H-thymidine (0.25 μCi/well) was added and the cells were cultured for 6 hrs. Using a cell harvester, the cells were recovered on a UniFilter-96 GF/B glass filter and the ^3H radioactivity uptaken by the cells was measured by TopCount (Packard). As a control, DMSO was used and the activity of the test substance was expressed in the concentration (IC50) necessary for inhibiting ^3H radioactivity uptaken by the cell to 50% of that of the control group. The measurements were made in triplicate.

For assay [2], the system named is colorectal cancer cell line HT-29 cells. Description: Growth inhibitory effect against cancer cell lines (3H-thymidine uptake), HT-29. Particulars: Homo sapiens, HT-29, inhibition of 3H-thymidine uptake; test substance 18 hrs, then 3H-thymidine 6 hrs; triplicate. How it is done: as §1
A further assay relates to p15 protein. Kind of assay: Evaluation of p15 induction activity (Western blotting). Particulars: test substance 0.1 μM, 24 hrs, ACHN cells or HT-29 cells, compared to DMSO, n=2. As to the method:
ACHN cells or HT-29 cells were cultured in a 6 well plate at 2.5×10^5 cells/1.8 mL/well for 24 hrs, then a test substance (0.1 μM) dissolved in DMSO was added. After 24 hrs, cells were detached using trypsin-EDTA (ethylene diamine tetraacetic acid) and solubilized with NuPAGE LDS sample buffer (Invitrogen). Using an RC DC protein assay kit (BIO-RAD), the protein concentration of the sample was quantitated, and a sample in an amount corresponding to 10 μg of BSA (bovine serum albumin) was analyzed by Western blotting using an anti-p15 antibody. The density of the band stained with the anti-p15 antibody was measured by a densitometer to quantify the amount of p15 protein. As a control, DMSO was used and the test was performed with n=2 and the average protein amount was determined.

Consider `Cn1c(=O)cc(Nc2ccc(Br)cc2)c2c(=O)n(C3CC3)c(=O)n(-c3cccc(NS(C)(=O)=O)c3)c21` [Example 1-304], for which the values for the IC50 in assay [1] and in assay [2] were 100 to 1000 nM and 10 to 100 nM, respectively. For the molecule `CCc1ccc(Nc2c3c(=O)n(C4CC4)c(=O)n(-c4cccc(NS(=O)(=O)CC)c4)c3c(C)c(=O)n2C)c(F)c1` [Example 4-26], the IC50 is 10 to 100 nM in assay [1] and less than 10 nM in assay [2]. For `Cn1c(=O)cc(Nc2ccc(I)cc2F)c2c(=O)n(C3CC3)c(=O)n(-c3ccccc3)c21` [Example 1-207], the IC50 was 10 to 100 nM in assay [1] and less than 10 nM in assay [2]. Further, in the assay on p15 protein, the fold induction at 0.1 µM is not below 1.5.

Consider `Cn1c(=O)cc(Nc2ccc(Br)cc2F)c2c(=O)n(C3CC3)c(=O)n(-c3cccc(S(C)(=O)=O)c3)c21` [Example 1-223], for which the IC50 in assay [1] lay in the range of 100 to 1000 nM; in assay [2] it was 10 to 100 nM. The same molecule returned a fold induction at 0.1 µM in the assay with p15 protein not below 1.5. For `CC(=O)Nc1cc(Cl)cc(-n2c(=O)n(C3CC3)c(=O)c3c(Nc4ccc(I)cc4F)n(C)c(=O)c(C)c32)c1` [Example 4-37], the IC50 fell in the range of 100 to 1000 nM in assay [1] and 10 to 100 nM in assay [2]. In the case of `Cc1c(=O)n(C)c(Nc2ccc(I)cc2F)c2c(=O)n(C3CC3)c(=O)n(-c3cccc(NC(=O)NCCO)c3)c12` [Example 4-95], the IC50 in assay [1] lay within 100 to 1000 nM; in assay [2] it was 10 to 100 nM. `CCc1ccc(Nc2c3c(=O)n(C4CC4)c(=O)n(-c4cccc(NC(C)=O)c4)c3c(C)c(=O)n2CC)c(F)c1` [Example 4-47] displayed an IC50 in assay [1] of 100 to 1000 nM.

As for `Cn1c(=O)cc(Nc2ccc(Br)cc2F)c2c(=O)n(C3CC3)c(=O)n(-c3cccc(C(N)=O)c3)c21` [Example 1-270], the IC50 lay within 100 to 1000 nM in assay [1] and 10 to 100 nM in assay [2].

In the case of `C#Cc1ccc(Nc2c3c(=O)n(CC)c(=O)n(-c4cccc(NS(=O)(=O)CC)c4)c3c(C)c(=O)n2C)c(F)c1` [Example 4-40], the IC50 in assay [1] is 10 to 100 nM; in assay [2] it was less than 10 nM. As for `C#Cc1ccc(Nc2c3c(=O)n(CC)c(=O)n(-c4cccc(NS(C)(=O)=O)c4)c3c(C)c(=O)n2C)c(F)c1` [Example 4-42], the half-maximal inhibitory concentration (IC50) was 10 to 100 nM in assay [1] and less than 10 nM in assay [2]. Take `Cn1c(=O)cc(Nc2ccc(Br)cc2F)c2c(=O)n(C3CC3)c(=O)n(-c3cccc(NS(=O)(=O)CCN4CCOCC4)c3)c21` [Example 1-339]: the IC50 in assay [1] was in the range of 100 to 1000 nM.

For the molecule `Cc1c(=O)n(C)c(Nc2ccc(Br)cc2F)c2c(=O)n(C3CC3)c(=O)n(-c3ccc([N+](=O)[O-])cc3)c12` [Example 4-5], the IC50 in assay [1] was 100 to 1000 nM; in assay [2] it was 10 to 100 nM. With `CCOC(=O)Nc1cccc(-n2c(=O)n(C3CC3)c(=O)c3c(Nc4ccc(Br)cc4F)cc(=O)n(C)c32)c1` [Example 1-308], the IC50 in assay [1] is 100 to 1000 nM; in assay [2], 10 to 100 nM. The like results for `CC#Cc1ccc(Nc2c3c(=O)n(C4CC4)c(=O)n(-c4cccc(NC(C)=O)c4)c3c(C)c(=O)n2C)c(F)c1` [Example 4-52] were, in that order, 100 to 1000 nM and 100 to 1000 nM.

In the case of `Cn1c(=O)cc(Nc2ccc(Br)cc2F)c2c(=O)n(C3CC3)c(=O)n(-c3cccc(NS(=O)(=O)c4cccnc4)c3)c21` [Example 1-335], the values for the IC50 in assay [1] and in assay [2] were 100 to 1000 nM and 10 to 100 nM, respectively. On the same counts, the results for `CCCCC(=O)NCC(=O)Nc1cccc(-n2c(=O)n(C3CC3)c(=O)c3c(Nc4ccc(Br)cc4F)cc(=O)n(C)c32)c1` [Example 1-276] are 100 to 1000 nM and 10 to 100 nM. Regarding `Cn1c(=O)cc(Nc2ccc3sccc3c2F)c2c(=O)n(C3CC3)c(=O)n(-c3ccccc3)c21` [Example 1-343], the IC50 is 100 to 1000 nM in assay [1] and 10 to 100 nM in assay [2].

`CCc1ccc(Nc2c3c(=O)n(C4CC4)c(=O)n(-c4cccc(NS(C)(=O)=O)c4)c3c(C)c(=O)n2C)c(F)c1` [Example 4-25]: the concentration for half-maximal inhibition (IC50) in assay [1] was 10 to 100 nM; in assay [2], less than 10 nM.

As to `Cc1c(=O)n(C)c(Nc2ccc(I)cc2F)c2c(=O)n(C3CC3)c(=O)n(-c3cccc(NS(=O)(=O)N(CCO)C(=O)NCCO)c3)c12` [Example 4-96], the IC50 was in the range of 100 to 1000 nM in assay [1] and 10 to 100 nM in assay [2]. The like results for `Cn1c(=O)cc(Nc2ccc(Br)cc2F)c2c(=O)n(C3CC3)c(=O)n(-c3cccc(OCCN4CCOCC4)c3)c21` [Example 1-232] were, in that order, 100 to 1000 nM and 10 to 100 nM. In the case of `CCc1ccc(Nc2c3c(=O)n(C4CC4)c(=O)n(-c4cccc(NS(C)(=O)=O)c4)c3c(C)c(=O)n2CC)c(F)c1` [Example 4-39], the IC50 in assay [1] lay within 100 to 1000 nM. As for `Cc1c(=O)n(C)c(Nc2ccc(I)cc2F)c2c(=O)n(C3CC3)c(=O)n(-c3cccc(NC(=O)c4cccn4C)c3)c12` [Example 4-87], the IC50 in assay [1] lay within 100 to 1000 nM; in assay [2], 10 to 100 nM. Turning to `CCn1c(=O)c2c(Nc3ccc(I)cc3F)n(C)c(=O)c(C)c2n(-c2cccc(NS(=O)(=O)CC)c2)c1=O` [Example 4-19], the IC50 in assay [1] is 10 to 100 nM; in assay [2], less than 10 nM.

Regarding `CCC(=O)Nc1cccc(-n2c(=O)n(C3CC3)c(=O)c3c(Nc4ccc(Br)cc4F)cc(=O)n(C)c32)c1` [Example 1-278], the IC50 is 100 to 1000 nM in assay [1] and 10 to 100 nM in assay [2]. The like results for `Cc1c(=O)n(C)c(Nc2ccc(Br)cc2)c2c(=O)n(C3CC3)c(=O)n(-c3ccccc3)c12` [Example 3-1] were, in that order, 100 to 1000 nM and 100 to 1000 nM. The like results for `CCn1c(=O)c2c(Nc3ccc(I)cc3F)n(C)c(=O)c(C)c2n(-c2cccc(NS(C)(=O)=O)c2)c1=O` [Example 4-20] were, in that order, 10 to 100 nM and less than 10 nM. The like results for `Cc1c(=O)n(C)c(Nc2ccc(I)cc2F)c2c(=O)n(C3CC3)c(=O)n(-c3ccc(CC(=O)O)cc3)c12` [Example 4-94] were, in that order, 100 to 1000 nM and 10 to 100 nM.

As to `C#Cc1ccc(Nc2c3c(=O)n(C4CC4)c(=O)n(-c4cccc(NC(C)=O)c4)c3c(C)c(=O)n2CC)c(F)c1` [Example 4-46], the IC50 fell in the range of 100 to 1000 nM in assay [1] and 10 to 100 nM in assay [2].

Take `CCc1ccc(Nc2c3c(=O)n(CC)c(=O)n(-c4cccc(NS(=O)(=O)CC)c4)c3c(C)c(=O)n2C)c(F)c1` [Example 4-41]: the IC50 in assay [1] and in assay [2] was 10 to 100 nM throughout. Take `CNS(=O)(=O)c1cccc(-n2c(=O)n(C3CC3)c(=O)c3c(Nc4ccc(Br)cc4F)cc(=O)n(C)c32)c1` [Example 1-294]: the IC50 in assay [1] fell in the range of 10 to 100 nM. For `Cc1c(=O)n(C)c(Nc2ccc(I)cc2F)c2c(=O)n(C3CC3)c(=O)n(-c3cccc(NS(=O)(=O)N(C)C)c3)c12` [Example 4-33], the 50% inhibitory concentration (IC50) in assay [1] and in assay [2] was less than 10 nM each time.

Turning to `Cn1c(=O)cc(Nc2ccc(Br)cc2F)c2c(=O)n(C3CC3)c(=O)n(-c3cccc(NS(=O)(=O)CC(F)(F)F)c3)c21` [Example 1-267], the IC50 in assay [1] lay within 100 to 1000 nM; in assay [2] it was 10 to 100 nM. For the molecule `Cc1cccc(-n2c(=O)n(C3CC3)c(=O)c3c(Nc4ccc(N(C)C)cc4)cc(=O)n(C)c32)c1` [Example 1-127], the IC50 in assay [2] was in the range of 100 to 1000 nM. The fold induction at 0.1 µM with p15 protein was not below 1.5. As to `Cc1c(=O)n(C)c(Nc2ccc(I)cc2F)c2c(=O)n(C3CC3)c(=O)n(-c3cccc(NS(=O)(=O)N4CCOCC4)c3)c12` [Example 4-34], the IC50 in assay [1] and in assay [2] was less than 10 nM each time. `CCc1ccc(Nc2c3c(=O)n(CC)c(=O)n(-c4cccc(NS(C)(=O)=O)c4)c3c(C)c(=O)n2C)c(F)c1` [Example 4-44]: the IC50 in assay [1] fell in the range of 100 to 1000 nM; in assay [2] it was 10 to 100 nM.
